The values that follow come from patent publication US20220282304A1, “SAME-SAMPLE ANTIBIOTIC SUSCEPTIBILITY TEST AND RELATED COMPOSITIONS, METHODS AND SYSTEMS” (CALIFORNIA INSTITUTE OF TECHNOLOGY, priority 2021, published 2022).

This experiment has as its system Escherichia coli K12. Put plainly: Digital same-sample filtration AST at two antibiotic concentrations (Example 13). The experiment is classed as cell-based. Conditions: for Both (number of wells) / Empty (number of wells) / Extracellular only (number of wells) / Intracellular only (number of wells): 19.0 to 21.2 minutes to centrifugation, 32 partitions, qPCR. As to the method: A 96-well microtiter plate was prepared for the experiment by placing Mueller-Hinton Broth (MHB) growth media and one of three different concentrations of ertapenem (ETP) sodium salt into each well. 32 of the wells contained 0 μg/mL of ETP antibiotic and served as reference condition antibiotic exposures; pure water was added instead of ETP dissolved in pure water. Another 32 of the wells contained 0.417 μg/mL of ETP (for a final concentration of 0.25 μg/mL). The last 32 wells contained 3.33 μg/mL of ETP (for a final concentration of 2.0 μg/mL). The 64 wells containing some ertapenem constituted the treated condition antibiotic exposures.
The inoculum was small enough that no detectable difference in the sample's optical density at 600 mm (OD600) was detectable by a spectrophotometer with a sensitivity of 0.01 absorbance units. After an incubation at 37° C., the media became turbid with an OD600 of 0.334 absorbance units after 3.5 hours of incubation.
In this experiment, the number and volume of sample partitions was restricted, for logistical reasons, to 96 partitions 25 μL in volume, specifically the wells of a 96-well plate. A target loading density of 0.5 cells per partition was set. The contrived clinical sample was diluted by a factor of 9.97239*10^−7 via a three-step serial dilution to an estimated density of […].
To begin the AST protocol, the diluted contrived clinical specimen was physically partitioned into the 96 samples by transferring 10 μL of the specimen, in 96 separate transfers (actually 8 transfers with a multichannel pipette), to each well of the 96-well microtiter plate containing ETP and MHB. Then, the entire plate was sealed with a RNase/DNase-free plastic, adhesive sealing membrane and placed on a thermal block set to 37° C. and shaking at 700 rpm.
After 8 minutes of incubation at 37° C., the exposures were taken back to the lab bench. The entire volume of each antibiotic exposure was transferred to a Millipore® 96-well sterile polystyrene MultiScreenHTS® filter plate (Millipore-Sigma MSGVS2210). Each well of the filter plate contained a hydrophilic polyvinylidene fluoride (PVDF) filter membrane with a […]. A 96-well polypropylene microtiter plate was affixed to the bottom of the filter plate. The filter plate was promptly centrifuged at 2200 relative centrifugal force for 5.0 minutes to speed the passage of the antibiotic exposure sample through the filter and into 96-well microtiter plate. The collected fluid was called the “filtrate.” In total, between 19.0 and 21.2 minutes elapsed between the first addition of cells to the exposure volume and the start of the centrifugation. The total time elapsed differed slightly among wells because cells could not be manually added to all wells at the exact same time.
8 μL of each filtrate was transferred to new containers containing 6 μL of Lucigen DNA Extraction Buffer, vortexed, centrifuged briefly to collect liquid at the bottom of the tube, and then heated for 6 minutes at 65° C. and then 4 minutes at 98° C.
After the creation of the filtrates, 30 μL of fresh MHB media was added to all filters. […] The purpose of this new volume of MHB was to wash away residual extracellular nucleic acids that might be confused for intracellular nucleic acids when the lysate was collected. The 30 μL of fresh MHB was centrifuged for 5 minutes at 2200 rcf into a clean 96-well plate, then discarded.
Next, 20 μL of DNA Extraction Buffer was placed into all of the wells of the filter plate, on top of the filters. The filter plate was heated to 65° C. for 6 minutes, without shaking, on a ThermoMixer® flat surface heating block. Intracellular nucleic acids were released from lysed cells into the DNA Extraction Buffer fluid. Then, the filter plate was taped to a clean 96-well polypropylene microtiter plate and centrifuged at 2200 rcf for 5 minutes. The DEB fluid that flowed through the filter was collected in the microtiter plate below the filter plate. […]
Background: Real-time PCR tracks product formation cycle by cycle.

Regarding `C[C@@H](O)[C@H]1C(=O)N2C(C(=O)O)=C(S[C@@H]3CN[C@H](C(=O)Nc4cccc(C(=O)O)c4)C3)[C@H](C)[C@H]12` [ETP, ertapenem], the susceptibility interpretation entry (2.0 μg/mL condition, more exposure time or more cells needed for a conclusive result) is “more likely to be susceptible”. The proportion of lysis (2.0 μg/mL condition, reference background 0/29) was 2/34. Further, under “Treated 0.25 μg ETP/mL”, the “Intact (most likely number of cells)” value was determined as 26, the “Lysed (most likely number of cells)” value was found to be 0, the “Both (number of wells)” value is 0 and the “Empty (number of wells)” value stood at 15. Moreover, where the note is “Treated 0.25 μg ETP/mL”, the “Extracellular only (number of wells)” value amounted to 0 and the “Intracellular only (number of wells)” value is reported as 17. Further, where the note is “Treated 2.00 μg ETP/mL”, the “Intact (most likely number of cells)” value is listed as 32, the “Lysed (most likely number of cells)” value is on record as 2, the “Both (number of wells)” value is recorded as 2 and the “Empty (number of wells)” value was 10. Where the note is “Treated 2.00 μg ETP/mL”, the “Extracellular only (number of wells)” value is given as 0 and the “Intracellular only (number of wells)” value was 20.
